Values after ≈ are worked out from the molar mass of the structure shown. Values joined by “and” are separate entries in the source; they are usually repeats but may differ in a detail not shown here. Equal entries are not always repeated. “Also recorded” adds a separate entry of the source. Structures can show the parent of a compound that is named as a salt. Where two headings read alike, the source gives them in different places.
Assays:
[1] = system: Staphylococcus aureus strain Newbould 305 (ATCC 29740); experiment: Example 1: experimental S. aureus mastitis in lactating cows, intramammary treatment; format: in vivo, Prim'Holstein lactating cows
Procedure: A Staphylococcus aureus strain Newbould 305 (ATCC 29740) stock suspension (about 10^11 CFU/ml) was kept frozen at −80° C. in peptone physiological water with 10% of glycerol. On day 0, the stock solution was thawed and diluted in peptone physiological water to a concentration of ca 1000 cfu/ml.
On Day 0 8 Prim'Holstein lactating cows, animals of between 2-5 years old and at least 2 months in lactation, were intramammarily inoculated into two homolateral quarters with 1 ml of S. aureus suspension per quarter (ca. 1000 cfu/quarter) into the teat cistern with sterile 2-ml syringes. Teat ends were disinfected with towels soaked in a disinfectant solution before infusion.
On day 6 after the challenge 4 cows (8 quarters) were treated with 75 mg cefquinome—one injector after each of 3 consecutive milkings—Group A. The 4 other cows infected were treated with 75 mg cefquinome as well, but 10 μg of re-LPS were infused just before each cefquinome infusion—Group B.
The standard assay for measuring mastitis in the dairy industry is to count the number of cells (originating from the cow) in the milk. This estimate is termed the somatic cell count (SCC). Specifically, the SCC reflects the levels of cells, including immune cells, such as leukocytes that are released from the lining and tissues of the udder of the infected animal, into the udder cavity. The number of somatic cells in a given volume of milk (typically 1 ml) provides a semi-quantitative estimate of the degree of mastitis, because unaffected animals typically have low SCC levels.
Milk samples were investigated for S. aureus presence and SCC levels at several time points during the study (days 2, 6, 9, 13, 16, 20, 23 post challenge for S. aureus bacteriology).
Clinical cure was assessed 16 days after treatment end (i.e. 23 days after the challenge), and was defined as having at least the two last consecutive milk samples with SCC <250000 cells/ml.

[2] = system: Staphylococcus aureus strain Newbould 305 (ATCC 29740); experiment: Example 2: experimental S. aureus mastitis in lactating cows, intramammary treatment; format: in vivo, Prim'Holstein lactating cows; settings: after Re-LPS infusion with neomycin/penicillin
Procedure: A Staphylococcus aureus strain Newbould 305 (ATCC 29740) stock suspension (about 10^9 CFU/ml) was kept frozen at −80° C. in peptone physiological water with 10% of glycerol. On day 0, the stock solution was thawed and diluted in peptone physiological water to a concentration of ca 200 cfu/ml.
On Day 0, 12 Prim'Holstein lactating cows, animals of between 2-8 years old and at least 1 month in lactation, were inoculated by intramammary route into two homo-lateral quarters, with 5 ml of S. aureus suspension per quarter (ca. 1000 cfu/quarter), using 5-ml syringes. Teat ends were disinfected with towels soaked in a disinfectant solution before infusion. […]
The standard assay for measuring mastitis in the dairy industry is to count the number of cells (originating from the cow) in the milk. […] The number of somatic cells in a given volume of milk (typically 1 ml) provides a semi-quantitative estimate of the degree of mastitis, because unaffected animals typically have low SCC levels. […]
Bacteriological cure was assessed 16 days after treatment end (i.e. 24 days after the challenge) and was defined as having at least the two last consecutive milk samples found negative for S. aureus (<5 cfu/ml).
Clinical cure was assessed 16 days after treatment end (i.e. 24 days after the challenge), and was defined as having at least the two last consecutive milk samples with SCC <250000 cells/ml.

[3] = relative to native LPS; cited from earlier work
TLR4 = settings: relative to native LPS; cited from earlier work
[4] = system: S. aureus strain Newbould 305; experiment: MIC against the S. aureus challenge strain; format: cell-based, Staphylococcus aureus; settings: S. aureus Newbould 305 strain used for the challenge

For CCCCCCCCCCCCCC(=O)O[C@H](CCCCCCCCCCC)CC(=O)OC1C(NC(=O)C[C@@H](CCCCCCCCCCC)OC(=O)CCCCCCCCCCC)[C@H](OCC2O[C@H](OP(=O)(O)O)C(NC(=O)C[C@H](O)CCCCCCCCCCC)C(OC(=O)C[C@H](O)CCCCCCCCCCC)[C@@H]2O)OC(CO[C@]2(C(=O)O)CC(O[C@]3(C(=O)O)CC(O)[C@@H](O)C([C@H](O)CO)O3)[C@@H](O)C([C@H](O)CO)O2)[C@H]1OP(=O)(O)O.N.N.N.N (stereo partly drawn) [Re-LPS, Kdo2-lipid A], the “SCC levels induced by treatment” value ([1]; after Re-LPS infusion with cefquinome, Example 1) is given as “above 1.10^6 cells per ml”, the “SCC levels induced by treatment” value [2] is given as “above 1.10^6 cells per ml” and the Endotoxin activity [3] is given as “equal to that of native LPS; also recorded: comparable to that of native LPS”. For the same molecule, the “Ability to activate TLR4” value (TLR4) was “comparable to that of native LPS”.

For CO/N=C(\C(=O)N[C@@H]1C(=O)N2C(C(=O)[O-])=C(C[n+]3cccc4c3CCCC4)CS[C@H]12)c1csc(N)n1 [cefquinome, I1-[[(6R,7R)-7-[[(2Z)-(2-amino-4-thiazolyl)-(methoxyimino)acetyl]amino]-2-carboxy-8-oxo-5-thia-1-azabicyclo[4.2.0-oct-2-en-3-yl]methyl]-5,6,7,8-tetrahydroquinoliniuminner salt], the “Quarters cure rate, bacteriological + clinical” value ([1]; day 23) was 37.5% (3/8), the “Quarters cure rate, clinical” value ([1]; day 23, two last samples SCC <250000 cells/ml) was 37.5% (3/8) and the Cure ([1]; individual quarter, assessed at day 23 (16 days after treatment end)) was “no (4×) and yes (4×)”. The “Quarter milk SCC at day 9” value ([1]; individual quarter, day 9 relative to infection (day 0), treatment at day 6) was 628 ×10^3 cell/ml and 310 ×10^3 cell/ml and 521 ×10^3 cell/ml and 533 ×10^3 cell/ml and 763 ×10^3 cell/ml and 334 ×10^3 cell/ml and 795 ×10^3 cell/ml and 249 ×10^3 cell/ml, the “Quarter milk SCC at day 13” value ([1]; individual quarter, day 13 relative to infection, treatment at day 6) was 384 ×10^3 cell/ml and 828 ×10^3 cell/ml and 1533 ×10^3 cell/ml and 414 ×10^3 cell/ml and 250 ×10^3 cell/ml and 177 ×10^3 cell/ml and 112 ×10^3 cell/ml and 134 ×10^3 cell/ml and the “Quarter milk SCC at day 16” value ([1]; individual quarter, day 16 relative to infection, treatment at day 6) was 2032 ×10^3 cell/ml and 921 ×10^3 cell/ml and 254 ×10^3 cell/ml and 317 ×10^3 cell/ml and 74 ×10^3 cell/ml and 125 ×10^3 cell/ml and 785 ×10^3 cell/ml and 95 ×10^3 cell/ml. For the same molecule, the “Quarter milk SCC at day 20” value ([1]; individual quarter, day 20 relative to infection, treatment at day 6) was 2008 ×10^3 cell/ml and 717 ×10^3 cell/ml and 281 ×10^3 cell/ml and 589 ×10^3 cell/ml and 137 ×10^3 cell/ml and 177 ×10^3 cell/ml and 1686 ×10^3 cell/ml and 77 ×10^3 cell/ml, the “Quarter milk SCC at day 23” value ([1]; individual quarter, day 23 relative to infection, treatment at day 6) was 1382 ×10^3 cell/ml and 739 ×10^3 cell/ml and 536 ×10^3 cell/ml and 186 ×10^3 cell/ml and 98 ×10^3 cell/ml and 109 ×10^3 cell/ml and 2482 ×10^3 cell/ml and 47 ×10^3 cell/ml and the MIC [4] was 0.25 µg/mL.

For CC1(C)S[C@@H]2[C@H](NC(=O)Cc3ccccc3)C(=O)N2[C@H]1C(=O)O [benzyl penicillin], the MIC ([4]; Staphylococcus aureus, read-out: MIC) was 0.064 µg/mL (≈ 0.191 µM).

With neomycin the MIC [4] was 2 µg/mL.

Reference: US20140088032A1, “TREATMENT OF MASTITIS” (priority 2011, published 2014)
